Assay results taken from ChEMBL document CHEMBL1201862, “PubChem BioAssay data set” (2004).
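How tested: cells in 96-well plates exposed to compound for 48 hours at five concentrations. GI50 = concentration required for 50% inhibition of growth.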 Activity calls are given as the source filed them. Cut-off read from the data, not from the text of the source: active = GI50 up to about 1.1 µM and inactive = higher.

Legend:
Assay in all cases: DTP human tumour cell line panel, 48 h
[1] = tested on: OVCAR-4
[2] = tested on: HCT-15
[3] = tested on: A549
[4] = tested on: HOP-92
[5] = tested on: SK-MEL-28
[6] = tested on: UACC-257
[7] = tested on: A498
[8] = tested on: SK-MEL-2
[9] = tested on: OVCAR-3
[10] = tested on: KM12
[11] = tested on: SNB-75
[12] = tested on: OVCAR-8
[13] = tested on: SW-620
[14] = tested on: COLO 205
[15] = tested on: RPMI-8226
[16] = tested on: SK-OV-3
[17] = tested on: UO-31

## C=C(C)CC(C(=O)O)c1ccc(C)cc1 (centres undefined)
[1]
  GI50: > 100 µM (inactive)
[2]
  GI50: > 100 µM
[3]
  GI50: > 100 µM (inactive)
[4]
  GI50: > 100 µM (inactive)
[5]
  GI50: > 100 µM (inactive)
[6]
  GI50: > 100 µM (inactive)
[7]
  GI50: > 100 µM (inactive)
[8]
  GI50: > 100 µM (inactive)
[9]
  GI50: > 100 µM (inactive)
[10]
  GI50: > 100 µM (inactive)
[11]
  GI50: > 100 µM (inactive)
[12]
  GI50: > 100 µM (inactive)
[13]
  GI50: > 100 µM (inactive)
[14]
  GI50: > 100 µM (inactive)
[15]
  GI50: > 100 µM (inactive)

## COc1cc(Nc2nc3cc(C(F)(F)F)ccc3nc2-c2ccccc2)cc(OC)c1OC
[1]
  GI50: 5.82 µM (inactive)
[2]
  GI50: > 100 µM
[3]
  GI50: 92.3 µM (inactive)
[4]
  GI50: 1.82 µM (inactive)
[5]
  GI50: 49.7 µM (inactive)
[6]
  GI50: 73.6 µM (inactive)
[7]
  GI50: > 100 µM (inactive)
[8]
  GI50: > 100 µM (inactive)
[9]
  GI50: 73.3 µM (inactive)
[10]
  GI50: > 100 µM (inactive)
[11]
  GI50: 39.7 µM (inactive)
[12]
  GI50: > 100 µM (inactive)
[13]
  GI50: > 100 µM (inactive)
[14]
  GI50: > 100 µM (inactive)
[16]
  GI50: 31.6 µM (inactive)
[17]
  GI50: > 100 µM (inactive)

## NC(=O)/N=C1\NC(Cc2ccccc2)C(=O)N1Cc1ccccc1 (centres undefined)
[1]
  GI50: > 100 µM (inactive)
[2]
  GI50: > 100 µM
[3]
  GI50: > 100 µM (inactive)
[5]
  GI50: > 100 µM (inactive)
[6]
  GI50: > 100 µM (inactive)
[9]
  GI50: > 100 µM (inactive)
[10]
  GI50: > 100 µM (inactive)
[11]
  GI50: 89.9 µM (inactive)
[12]
  GI50: > 100 µM (inactive)
[13]
  GI50: > 100 µM (inactive)
[14]
  GI50: > 100 µM (inactive)
[16]
  GI50: > 100 µM (inactive)
[15]
  GI50: > 100 µM (inactive)
[17]
  GI50: > 100 µM (inactive)

## Sc1nnc(-c2ccccc2)n1/N=C\c1ccc(-c2ccc(Cl)cc2)o1
[1]
  GI50: > 100 µM (inactive)
[3]
  GI50: > 100 µM (inactive)
[4]
  GI50: > 100 µM (inactive)
[5]
  GI50: > 100 µM (inactive)
[6]
  GI50: > 100 µM (inactive)
[9]
  GI50: > 100 µM (inactive)
[10]
  GI50: > 100 µM (inactive)
[11]
  GI50: > 100 µM (inactive)
[12]
  GI50: > 100 µM (inactive)
[13]
  GI50: > 100 µM (inactive)
[14]
  GI50: > 100 µM (inactive)
[16]
  GI50: > 100 µM (inactive)
[15]
  GI50: > 100 µM (inactive)
[17]
  GI50: > 100 µM (inactive)

## O=C(c1ccccc1)c1nnc(C(=O)c2ccccc2)nn1
[1]
  GI50: > 344 µM (inactive)
[2]
  GI50: > 344 µM
[3]
  GI50: > 344 µM (inactive)
[4]
  GI50: 166 µM (inactive)
[5]
  GI50: > 344 µM (inactive)
[6]
  GI50: > 344 µM (inactive)
[8]
  GI50: > 344 µM (inactive)
[9]
  GI50: > 344 µM (inactive)
[10]
  GI50: > 344 µM (inactive)
[11]
  GI50: 83.4 µM (inactive)
[12]
  GI50: > 344 µM (inactive)
[13]
  GI50: > 344 µM (inactive)
[14]
  GI50: > 344 µM (inactive)
[16]
  GI50: 278 µM (inactive)
[15]
  GI50: > 344 µM (inactive)
[17]
  GI50: > 344 µM (inactive)

## CCOc1cccc2cccnc12
[1]
  GI50: > 100 µM (inactive)
[3]
  GI50: > 100 µM (inactive)
[4]
  GI50: > 100 µM (inactive)
[5]
  GI50: > 100 µM (inactive)
[6]
  GI50: > 100 µM (inactive)
[9]
  GI50: > 100 µM (inactive)
[10]
  GI50: > 100 µM (inactive)
[11]
  GI50: > 100 µM (inactive)
[12]
  GI50: > 100 µM (inactive)
[13]
  GI50: > 100 µM (inactive)
[14]
  GI50: > 100 µM (inactive)
[16]
  GI50: > 100 µM (inactive)
[15]
  GI50: > 100 µM (inactive)
[17]
  GI50: > 100 µM (inactive)

## Nc1ccc2c(c1)CC1c3ccccc3C(C2)c2ccccc21
[1]
  GI50: > 100 µM (inactive)
[2]
  GI50: > 100 µM
[3]
  GI50: > 100 µM (inactive)
[4]
  GI50: > 100 µM (inactive)
[6]
  GI50: > 100 µM (inactive)
[7]
  GI50: > 100 µM (inactive)
[8]
  GI50: > 100 µM (inactive)
[10]
  GI50: > 100 µM (inactive)
[11]
  GI50: > 100 µM (inactive)
[12]
  GI50: > 100 µM (inactive)
[13]
  GI50: > 100 µM (inactive)
[14]
  GI50: > 100 µM (inactive)
[16]
  GI50: > 100 µM (inactive)
[15]
  GI50: 34.6 µM (inactive)
[17]
  GI50: > 100 µM (inactive)

## CC1=NC(C(C)C)C(=O)O1 (centres undefined)
[1]
  GI50: > 100 µM (inactive)
[2]
  GI50: 34.4 µM
[4]
  GI50: > 100 µM (inactive)
[5]
  GI50: > 100 µM (inactive)
[6]
  GI50: > 100 µM (inactive)
[7]
  GI50: > 100 µM (inactive)
[9]
  GI50: > 100 µM (inactive)
[10]
  GI50: > 100 µM (inactive)
[11]
  GI50: > 100 µM (inactive)
[12]
  GI50: > 100 µM (inactive)
[13]
  GI50: 13.1 µM (inactive)
[14]
  GI50: 72.3 µM (inactive)
[16]
  GI50: > 100 µM (inactive)
[15]
  GI50: 22.1 µM (inactive)
[17]
  GI50: > 100 µM (inactive)

## O=C(O)C(CS)Nc1c2ccccc2[n+]([O-])c2ccccc12 (centres undefined)
[1]
  GI50: > 100 µM (inactive)
[2]
  GI50: > 100 µM
[3]
  GI50: > 100 µM (inactive)
[5]
  GI50: > 100 µM (inactive)
[6]
  GI50: > 100 µM (inactive)
[7]
  GI50: > 100 µM (inactive)
[8]
  GI50: > 100 µM (inactive)
[9]
  GI50: > 100 µM (inactive)
[10]
  GI50: > 100 µM (inactive)
[11]
  GI50: > 100 µM (inactive)
[12]
  GI50: > 100 µM (inactive)
[13]
  GI50: > 100 µM (inactive)
[14]
  GI50: > 100 µM (inactive)
[16]
  GI50: > 100 µM (inactive)
[15]
  GI50: 29.1 µM (inactive)
[17]
  GI50: 49.8 µM (inactive)

## CN(C)CCC(CCN(C)C)=NO
[1]
  GI50: > 100 µM (inactive)
[2]
  GI50: > 100 µM
[3]
  GI50: > 100 µM (inactive)
[5]
  GI50: > 100 µM (inactive)
[6]
  GI50: > 100 µM (inactive)
[7]
  GI50: > 100 µM (inactive)
[8]
  GI50: > 100 µM (inactive)
[9]
  GI50: > 100 µM (inactive)
[10]
  GI50: > 100 µM (inactive)
[11]
  GI50: > 100 µM (inactive)
[12]
  GI50: > 100 µM (inactive)
[13]
  GI50: > 100 µM (inactive)
[14]
  GI50: > 100 µM (inactive)
[16]
  GI50: > 100 µM (inactive)
[15]
  GI50: > 100 µM (inactive)
[17]
  GI50: > 100 µM (inactive)

## CSC1=NC=CCN1C
[1]
  GI50: > 100 µM (inactive)
[2]
  GI50: > 100 µM
[3]
  GI50: > 100 µM (inactive)
[5]
  GI50: > 100 µM (inactive)
[6]
  GI50: > 100 µM (inactive)
[7]
  GI50: > 100 µM (inactive)
[8]
  GI50: > 100 µM (inactive)
[9]
  GI50: > 100 µM (inactive)
[10]
  GI50: > 100 µM (inactive)
[11]
  GI50: > 100 µM (inactive)
[12]
  GI50: > 100 µM (inactive)
[13]
  GI50: > 100 µM (inactive)
[14]
  GI50: > 100 µM (inactive)
[16]
  GI50: > 100 µM (inactive)
[15]
  GI50: > 100 µM (inactive)
[17]
  GI50: > 100 µM (inactive)

## C=C[C@@]1(C)CCC2(O)C(CCC3C2(C)CCC[C@@]3(C)COC(=O)CC(=O)OC)C1 (some centres undefined)
[1]
  GI50: 17.5 µM (inactive)
[2]
  GI50: 18.4 µM
[3]
  GI50: 17.6 µM (inactive)
[5]
  GI50: 17 µM (inactive)
[6]
  GI50: 20.2 µM (inactive)
[9]
  GI50: 17.3 µM (inactive)
[10]
  GI50: 18.1 µM (inactive)
[11]
  GI50: 19.9 µM (inactive)
[12]
  GI50: 23.1 µM (inactive)
[13]
  GI50: 17.6 µM (inactive)
[16]
  GI50: > 100 µM (inactive)
[15]
  GI50: 19.8 µM (inactive)
[17]
  GI50: 22.6 µM (inactive)

## O=C(O)c1ccccc1NS(=O)(=O)c1ccc(Cl)cc1
[1]
  GI50: > 100 µM (inactive)
[2]
  GI50: > 100 µM
[3]
  GI50: > 100 µM (inactive)
[4]
  GI50: 19 µM (inactive)
[5]
  GI50: > 100 µM (inactive)
[6]
  GI50: > 100 µM (inactive)
[8]
  GI50: > 100 µM (inactive)
[11]
  GI50: > 100 µM (inactive)
[12]
  GI50: > 100 µM (inactive)
[13]
  GI50: > 100 µM (inactive)
[14]
  GI50: > 100 µM (inactive)
[16]
  GI50: > 100 µM (inactive)
[15]
  GI50: > 100 µM (inactive)
[17]
  GI50: > 100 µM (inactive)

## C=C1C(=O)O[C@H]2[C@H]1[C@H](OC(=O)/C(C)=C\C)CC(=C)[C@@H]1[C@H](O)[C@H]3O[C@@]3(C)[C@@]12O [EUPATUNDIN]
[1]
  GI50: > 100 µM (inactive)
[2]
  GI50: > 100 µM
[3]
  GI50: > 100 µM (inactive)
[4]
  GI50: > 100 µM (inactive)
[5]
  GI50: > 100 µM (inactive)
[8]
  GI50: > 100 µM (inactive)
[9]
  GI50: > 100 µM (inactive)
[10]
  GI50: > 100 µM (inactive)
[11]
  GI50: > 100 µM (inactive)
[12]
  GI50: > 100 µM (inactive)
[13]
  GI50: > 100 µM (inactive)
[14]
  GI50: > 100 µM (inactive)
[16]
  GI50: > 100 µM (inactive)
[15]
  GI50: > 100 µM (inactive)
[17]
  GI50: > 100 µM (inactive)
